Measured values published in the kinase profiling compilation of Christmann-Franck et al. (2016).

Legend:
Settings in all cases: compound 10.0 µM
[1] = target: JAK2 JH1 catalytic (human) (UniProt O60674)
MARK2 (human) = MARK2 (human) (UniProt Q7KZI7)
CDK14 (human) = CDK14 (human) (UniProt O94921)
[2] = system: LRRK2 (human), Q5S007 [G2019S]
[3] = system: EGFR (human), P00533 [746-750 del]
AURKB (human) = AURKB (human) (UniProt Q96GD4)
ABL2 (human) = ABL2 (human) (UniProt P42684)
[4] = system: PIK3CA (human), P42336 [M1043I]
LCK (human) = LCK (human) (UniProt P06239)
ANKK1 (human) = ANKK1 (human) (UniProt Q8NFD2)
[5] = system: EGFR (human), P00533 [T790M/L858R]
[6] = system: PIK3CA (human), P42336 [H1047Y]
[7] = system: PIK3CA (human), P42336 [H1047L]
SRC (human) = SRC (human) (UniProt P12931)
[8] = system: EGFR (human), P00533 [P753S; 747-752 del]
[9] = system: EGFR (human), P00533 [T790M]
[10] = system: EGFR (human), P00533 [L861Q]
AKT2 (human) = AKT2 (human) (UniProt P31751)
[11] = system: EGFR (human), P00533 [L858R]
CDK8 (human) = CDK8 (human) (UniProt P49336)
KDR (human) = KDR (human) (UniProt P35968)
[12] = system: EGFR (human), P00533 [G719C]
CSF1R (human) = CSF1R (human) (UniProt P07333)
[13] = system: KIT (human), P10721 [D816H]
[14] = system: EGFR (human), P00533 [G719S]
[15] = system: ABL1 (human), P00519 [E255K]
[16] = system: EGFR (human), P00533 [747-751 del / S ins]
[17] = system: ABL1 (human), P00519 [Y253F]
CLK2 (human) = CLK2 (human) (UniProt P49760)
PIK3CD (human) = PIK3CD (human) (UniProt O00329)
[18] = system: EGFR (human), P00533 [A750P; 747-749 del]
PIK3CG (human) = PIK3CG (human) (UniProt P48736)
[19] = system: PIK3CA (human), P42336 [E545K]
[20] = system: FLT3 (human), P36888 [D835Y]
NEK1 (human) = NEK1 (human) (UniProt Q96PY6)
[21] = system: KIT (human), P10721 [A829P]
PIK3CA (human) = PIK3CA (human) (UniProt P42336)
[22] = system: PIK3CA (human), P42336 [E545A]
HIPK2 (human) = HIPK2 (human) (UniProt Q9H2X6)
EPHB4 (human) = EPHB4 (human) (UniProt P54760)
[23] = system: PIK3CA (human), P42336 [Q546K]

Chain of MARK2 (human) (Q7KZI7 whole entry, looked up): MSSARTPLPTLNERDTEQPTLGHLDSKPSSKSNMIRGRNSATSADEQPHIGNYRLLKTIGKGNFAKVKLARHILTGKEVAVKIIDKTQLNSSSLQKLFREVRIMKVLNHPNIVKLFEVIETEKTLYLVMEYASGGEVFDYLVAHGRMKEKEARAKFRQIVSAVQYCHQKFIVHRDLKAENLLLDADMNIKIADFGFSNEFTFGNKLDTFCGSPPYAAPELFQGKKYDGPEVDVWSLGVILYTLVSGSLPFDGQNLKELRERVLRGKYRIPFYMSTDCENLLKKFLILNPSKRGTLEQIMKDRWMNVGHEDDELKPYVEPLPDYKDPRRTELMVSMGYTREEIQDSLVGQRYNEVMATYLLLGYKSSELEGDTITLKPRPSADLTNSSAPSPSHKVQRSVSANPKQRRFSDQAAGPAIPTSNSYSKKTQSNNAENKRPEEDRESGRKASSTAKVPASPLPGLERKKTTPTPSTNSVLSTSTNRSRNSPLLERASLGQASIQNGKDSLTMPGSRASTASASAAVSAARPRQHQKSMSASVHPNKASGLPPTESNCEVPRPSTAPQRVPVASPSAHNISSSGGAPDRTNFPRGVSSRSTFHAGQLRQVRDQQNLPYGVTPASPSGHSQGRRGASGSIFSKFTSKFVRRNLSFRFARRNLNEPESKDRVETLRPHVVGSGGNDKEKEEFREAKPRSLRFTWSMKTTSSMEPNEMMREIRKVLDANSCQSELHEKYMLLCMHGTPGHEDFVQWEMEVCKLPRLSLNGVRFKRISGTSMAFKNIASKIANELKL
Chain of JAK2 JH1 catalytic (human) (O60674 whole entry, looked up): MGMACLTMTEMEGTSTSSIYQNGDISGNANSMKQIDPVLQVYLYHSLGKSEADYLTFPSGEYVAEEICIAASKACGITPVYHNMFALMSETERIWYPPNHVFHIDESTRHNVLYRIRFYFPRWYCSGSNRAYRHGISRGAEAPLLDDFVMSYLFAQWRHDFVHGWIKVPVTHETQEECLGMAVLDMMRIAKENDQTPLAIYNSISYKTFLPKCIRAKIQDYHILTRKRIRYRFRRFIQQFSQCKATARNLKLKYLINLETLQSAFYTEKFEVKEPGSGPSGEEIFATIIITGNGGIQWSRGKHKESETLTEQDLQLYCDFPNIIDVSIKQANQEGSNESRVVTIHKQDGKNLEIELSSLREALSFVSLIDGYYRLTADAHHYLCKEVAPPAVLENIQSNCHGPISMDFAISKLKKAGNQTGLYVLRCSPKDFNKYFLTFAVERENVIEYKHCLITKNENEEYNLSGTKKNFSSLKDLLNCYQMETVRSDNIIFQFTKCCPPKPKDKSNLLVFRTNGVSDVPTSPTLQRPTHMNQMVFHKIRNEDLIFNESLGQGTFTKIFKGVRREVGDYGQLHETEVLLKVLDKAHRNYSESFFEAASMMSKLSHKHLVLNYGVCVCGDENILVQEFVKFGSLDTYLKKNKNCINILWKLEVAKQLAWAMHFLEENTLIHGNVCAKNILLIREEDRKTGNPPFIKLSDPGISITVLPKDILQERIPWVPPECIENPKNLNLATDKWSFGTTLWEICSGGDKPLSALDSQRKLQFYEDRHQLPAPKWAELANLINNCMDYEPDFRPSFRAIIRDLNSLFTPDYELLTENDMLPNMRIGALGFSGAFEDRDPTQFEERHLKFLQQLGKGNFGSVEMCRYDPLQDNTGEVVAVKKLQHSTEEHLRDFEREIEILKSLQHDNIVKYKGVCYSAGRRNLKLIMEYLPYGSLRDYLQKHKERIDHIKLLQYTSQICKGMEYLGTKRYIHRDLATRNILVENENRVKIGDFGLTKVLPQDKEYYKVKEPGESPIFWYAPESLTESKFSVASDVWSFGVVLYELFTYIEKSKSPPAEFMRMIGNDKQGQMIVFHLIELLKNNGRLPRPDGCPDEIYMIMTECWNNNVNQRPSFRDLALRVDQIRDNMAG
Chain of CDK14 (human) (O94921 whole entry, looked up): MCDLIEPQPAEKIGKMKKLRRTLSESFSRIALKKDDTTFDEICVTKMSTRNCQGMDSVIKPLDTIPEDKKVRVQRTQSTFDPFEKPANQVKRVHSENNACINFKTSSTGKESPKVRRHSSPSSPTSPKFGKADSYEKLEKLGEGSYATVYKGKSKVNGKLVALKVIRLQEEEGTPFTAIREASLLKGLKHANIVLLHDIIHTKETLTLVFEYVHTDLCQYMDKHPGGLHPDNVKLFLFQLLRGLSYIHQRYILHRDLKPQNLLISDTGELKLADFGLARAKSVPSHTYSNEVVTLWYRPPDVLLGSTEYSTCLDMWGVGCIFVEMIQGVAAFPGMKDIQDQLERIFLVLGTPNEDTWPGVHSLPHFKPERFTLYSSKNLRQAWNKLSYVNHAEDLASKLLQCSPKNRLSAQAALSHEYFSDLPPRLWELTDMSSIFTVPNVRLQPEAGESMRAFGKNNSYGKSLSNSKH
Chain of LRRK2 (human), Q5S007 [G2019S] (Q5S007 whole entry G2019S, looked up): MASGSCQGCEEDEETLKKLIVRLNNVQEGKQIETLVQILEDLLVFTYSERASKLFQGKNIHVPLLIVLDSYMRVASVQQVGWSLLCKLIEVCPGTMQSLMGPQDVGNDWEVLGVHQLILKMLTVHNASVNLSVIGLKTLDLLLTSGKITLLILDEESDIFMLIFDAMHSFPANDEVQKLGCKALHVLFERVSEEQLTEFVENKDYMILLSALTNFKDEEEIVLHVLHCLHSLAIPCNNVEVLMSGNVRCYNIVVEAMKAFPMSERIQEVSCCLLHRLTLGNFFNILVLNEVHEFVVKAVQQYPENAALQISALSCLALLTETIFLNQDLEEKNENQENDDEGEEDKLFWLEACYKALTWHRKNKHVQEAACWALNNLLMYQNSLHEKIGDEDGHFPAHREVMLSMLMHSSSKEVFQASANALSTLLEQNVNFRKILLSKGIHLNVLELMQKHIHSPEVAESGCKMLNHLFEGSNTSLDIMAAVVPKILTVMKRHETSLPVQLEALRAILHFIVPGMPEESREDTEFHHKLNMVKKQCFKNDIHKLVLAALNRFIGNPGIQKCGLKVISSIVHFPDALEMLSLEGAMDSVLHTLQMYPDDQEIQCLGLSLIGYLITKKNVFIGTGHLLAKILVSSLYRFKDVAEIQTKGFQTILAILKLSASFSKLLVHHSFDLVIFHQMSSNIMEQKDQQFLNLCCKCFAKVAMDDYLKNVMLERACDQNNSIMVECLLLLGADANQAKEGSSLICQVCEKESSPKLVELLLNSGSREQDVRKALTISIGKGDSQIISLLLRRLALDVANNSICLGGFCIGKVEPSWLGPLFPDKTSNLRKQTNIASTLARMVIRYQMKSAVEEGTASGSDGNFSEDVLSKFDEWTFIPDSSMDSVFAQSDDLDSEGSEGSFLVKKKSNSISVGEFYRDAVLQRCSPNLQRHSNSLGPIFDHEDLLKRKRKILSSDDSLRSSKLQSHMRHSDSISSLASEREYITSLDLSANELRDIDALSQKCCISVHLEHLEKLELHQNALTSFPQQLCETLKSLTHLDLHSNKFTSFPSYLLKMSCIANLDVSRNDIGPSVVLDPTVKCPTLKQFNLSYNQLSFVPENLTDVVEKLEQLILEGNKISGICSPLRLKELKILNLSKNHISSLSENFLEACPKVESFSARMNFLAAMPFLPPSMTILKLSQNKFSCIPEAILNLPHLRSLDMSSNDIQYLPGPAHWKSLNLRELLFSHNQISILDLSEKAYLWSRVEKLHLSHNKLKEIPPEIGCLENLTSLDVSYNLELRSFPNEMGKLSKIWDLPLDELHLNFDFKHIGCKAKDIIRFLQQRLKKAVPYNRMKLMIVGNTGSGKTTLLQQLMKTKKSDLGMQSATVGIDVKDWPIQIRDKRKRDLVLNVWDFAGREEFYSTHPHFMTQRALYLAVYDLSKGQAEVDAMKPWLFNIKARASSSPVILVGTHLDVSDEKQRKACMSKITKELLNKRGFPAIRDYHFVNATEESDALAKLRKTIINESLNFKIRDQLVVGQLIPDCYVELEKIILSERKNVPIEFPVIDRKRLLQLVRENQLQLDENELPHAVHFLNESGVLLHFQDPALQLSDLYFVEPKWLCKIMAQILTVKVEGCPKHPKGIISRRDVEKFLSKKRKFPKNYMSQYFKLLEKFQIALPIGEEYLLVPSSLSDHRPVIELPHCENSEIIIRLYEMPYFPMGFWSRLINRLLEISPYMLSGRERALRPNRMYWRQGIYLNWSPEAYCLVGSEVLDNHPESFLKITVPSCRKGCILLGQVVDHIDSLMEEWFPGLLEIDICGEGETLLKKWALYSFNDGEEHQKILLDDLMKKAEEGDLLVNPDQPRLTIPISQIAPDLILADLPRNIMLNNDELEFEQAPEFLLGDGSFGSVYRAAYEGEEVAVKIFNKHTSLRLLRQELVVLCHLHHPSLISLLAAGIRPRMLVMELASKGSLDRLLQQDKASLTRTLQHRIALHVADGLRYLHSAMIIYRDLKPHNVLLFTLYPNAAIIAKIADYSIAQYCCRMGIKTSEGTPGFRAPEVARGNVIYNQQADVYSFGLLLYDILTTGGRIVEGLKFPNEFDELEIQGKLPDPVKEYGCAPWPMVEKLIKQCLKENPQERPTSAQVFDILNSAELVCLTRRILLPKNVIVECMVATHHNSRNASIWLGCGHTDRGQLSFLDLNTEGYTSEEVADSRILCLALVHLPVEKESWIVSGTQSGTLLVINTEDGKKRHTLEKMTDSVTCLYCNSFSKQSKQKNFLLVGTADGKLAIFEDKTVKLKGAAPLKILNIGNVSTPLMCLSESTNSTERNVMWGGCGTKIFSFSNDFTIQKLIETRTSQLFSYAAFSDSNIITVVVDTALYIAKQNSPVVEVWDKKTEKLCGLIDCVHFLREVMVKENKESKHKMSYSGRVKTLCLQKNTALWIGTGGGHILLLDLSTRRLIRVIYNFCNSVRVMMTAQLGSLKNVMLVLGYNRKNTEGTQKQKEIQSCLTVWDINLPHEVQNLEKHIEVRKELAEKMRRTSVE

CNC(=O)c1cc(Oc2ccc(NC(=O)Nc3ccc(Cl)c(C(F)(F)F)c3)cc2)ccn1
per cent of control [1]: 70% | per cent of control (MARK2 (human)): 67% | per cent of control (CDK14 (human)): 3.1% | per cent of control [2]: 62%

CNC(=O)c1cc(Oc2ccc(NC(=O)Nc3ccc(Cl)c(C(F)(F)F)c3)cc2)cc[n+]1[O-]
per cent of control [3]: 84% | per cent of control [1]: 68% | per cent of control (AURKB (human)): 0% | per cent of control (ABL2 (human)): 25% | per cent of control [4]: 83% | per cent of control (LCK (human)): 2.5% | per cent of control (ANKK1 (human)): 58% | per cent of control [5]: 82% | per cent of control [6]: 100% | per cent of control [7]: 98% | per cent of control (SRC (human)): 53% | per cent of control [8]: 77% | per cent of control [9]: 100% | per cent of control [10]: 74% | per cent of control (AKT2 (human)): 88% | per cent of control (MARK2 (human)): 87% | per cent of control [11]: 88% | per cent of control (CDK8 (human)): 0.6% | per cent of control (KDR (human)): 0.4% | per cent of control [12]: 80% | per cent of control (CSF1R (human)): 0% | per cent of control [13]: 17% | per cent of control [14]: 100% | per cent of control [15]: 38% | per cent of control [16]: 76% | per cent of control [17]: 30% | per cent of control (CLK2 (human)): 80% | per cent of control (PIK3CD (human)): 100% | per cent of control [18]: 70% | per cent of control (PIK3CG (human)): 82% | per cent of control [19]: 100% | per cent of control [20]: 2.8% | per cent of control (NEK1 (human)): 84% | per cent of control (CDK14 (human)): 3.8% | per cent of control [21]: 26% | per cent of control (PIK3CA (human)): 95% | per cent of control [22]: 100% | per cent of control [2]: 64% | per cent of control (HIPK2 (human)): 20% | per cent of control (EPHB4 (human)): 16% | per cent of control [23]: 100%
